From article PMC10382584, “Macrocyclization of linear molecules by deep learning to facilitate macrocyclic drug candidates discovery” (Nature Communications, 2023)

Assays:
Assay in all cases: biochemical
Parameters in all cases: DiscoveRx KINOMEscan competition binding, percent of DMSO control signal at 100 nM
Settings in all cases: read-out: Fig. 4a / Percent Control / Compound 1; percent of DMSO control, competition binding
YANK3 = target: T1, YANK3 (Homo sapiens, UniProt Q86UX6)
T1 construct: gene STK32C

CDK7 = CDK7 (Homo sapiens, UniProt P50613)
CAMK2B = CAMK2B (Homo sapiens, UniProt Q13554)
PIK3CA(E542K) = PIK3CA(E542K) (Homo sapiens, UniProt P42336, E542K)
CLK4 = CLK4 (Homo sapiens, UniProt Q9HAZ1)
PRKX = PRKX (Homo sapiens, UniProt P51817)
NDR1 = target: T2, NDR1 (Homo sapiens, UniProt Q15208)
T2 construct: gene STK38

CHEK2 = CHEK2 (Homo sapiens, UniProt O96017)
PRKG2 = PRKG2 (Homo sapiens, UniProt Q13237)
MEK6 = target: T3, MEK6 (Homo sapiens, UniProt P52564)
T3 construct: gene MAP2K6

NIK = target: T4, NIK (Homo sapiens, UniProt Q99558)
T4 construct: gene MAP3K14

CSF1R = CSF1R (Homo sapiens, UniProt P07333)
[1] = target: T5, RPS6KA4(Kin.Dom.2-C-terminal) (Homo sapiens, UniProt O75676)
T5 construct: Kin.Dom.2-C-terminal

CDK9 = CDK9 (Homo sapiens, UniProt P50750)
MRCKB = target: T6, MRCKB (Homo sapiens, UniProt Q9Y5S2)
T6 construct: gene CDC42BPB

FER = FER (Homo sapiens, UniProt P16591)
MYLK4 = MYLK4 (Homo sapiens, UniProt Q86YV6)
CLK3 = CLK3 (Homo sapiens, UniProt P49761)
CDK8 = CDK8 (Homo sapiens, UniProt P49336)
[2] = target: T7, RPS6KA5(Kin.Dom.2-C-terminal) (Homo sapiens, UniProt O75582)
T7 construct: Kin.Dom.2-C-terminal

ROCK2 = ROCK2 (Homo sapiens, UniProt O75116)
EIF2AK1 = EIF2AK1 (Homo sapiens, UniProt Q9BQI3)
BMPR2 = BMPR2 (Homo sapiens, UniProt Q13873)
[3] = target: T8, RPS6KA4(Kin.Dom.1-N-terminal) (Homo sapiens, UniProt O75676)
T8 construct: Kin.Dom.1-N-terminal

LYN = LYN (Homo sapiens, UniProt P07948)
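Further: KINOMEscan kinase panel binding assay, signal normalized between DMSO as 100% and a positive control compound as 0%.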

Chain of CLK4 (Q9HAZ1 whole entry): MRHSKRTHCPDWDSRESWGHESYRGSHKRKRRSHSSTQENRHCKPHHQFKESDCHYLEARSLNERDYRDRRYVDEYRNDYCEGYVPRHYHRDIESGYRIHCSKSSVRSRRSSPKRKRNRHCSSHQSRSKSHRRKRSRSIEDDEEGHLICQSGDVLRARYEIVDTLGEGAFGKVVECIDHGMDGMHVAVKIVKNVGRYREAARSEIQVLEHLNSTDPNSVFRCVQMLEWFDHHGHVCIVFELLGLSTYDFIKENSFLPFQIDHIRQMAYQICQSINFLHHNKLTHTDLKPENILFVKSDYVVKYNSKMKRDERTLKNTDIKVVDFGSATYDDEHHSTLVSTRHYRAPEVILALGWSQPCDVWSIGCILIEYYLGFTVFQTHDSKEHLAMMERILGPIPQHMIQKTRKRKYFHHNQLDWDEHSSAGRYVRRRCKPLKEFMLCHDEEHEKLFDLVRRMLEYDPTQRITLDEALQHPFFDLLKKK
Chain of CDK7 (P50613 whole entry): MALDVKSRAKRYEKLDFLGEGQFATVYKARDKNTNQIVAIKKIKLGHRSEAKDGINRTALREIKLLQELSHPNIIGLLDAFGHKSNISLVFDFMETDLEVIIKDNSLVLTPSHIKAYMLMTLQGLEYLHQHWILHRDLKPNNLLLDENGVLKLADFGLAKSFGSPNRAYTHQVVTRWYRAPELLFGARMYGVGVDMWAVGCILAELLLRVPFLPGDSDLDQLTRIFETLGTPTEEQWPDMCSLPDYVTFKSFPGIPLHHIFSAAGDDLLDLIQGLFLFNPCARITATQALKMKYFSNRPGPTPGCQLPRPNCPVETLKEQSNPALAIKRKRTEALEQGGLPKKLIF
Chain of ROCK2 (O75116 whole entry): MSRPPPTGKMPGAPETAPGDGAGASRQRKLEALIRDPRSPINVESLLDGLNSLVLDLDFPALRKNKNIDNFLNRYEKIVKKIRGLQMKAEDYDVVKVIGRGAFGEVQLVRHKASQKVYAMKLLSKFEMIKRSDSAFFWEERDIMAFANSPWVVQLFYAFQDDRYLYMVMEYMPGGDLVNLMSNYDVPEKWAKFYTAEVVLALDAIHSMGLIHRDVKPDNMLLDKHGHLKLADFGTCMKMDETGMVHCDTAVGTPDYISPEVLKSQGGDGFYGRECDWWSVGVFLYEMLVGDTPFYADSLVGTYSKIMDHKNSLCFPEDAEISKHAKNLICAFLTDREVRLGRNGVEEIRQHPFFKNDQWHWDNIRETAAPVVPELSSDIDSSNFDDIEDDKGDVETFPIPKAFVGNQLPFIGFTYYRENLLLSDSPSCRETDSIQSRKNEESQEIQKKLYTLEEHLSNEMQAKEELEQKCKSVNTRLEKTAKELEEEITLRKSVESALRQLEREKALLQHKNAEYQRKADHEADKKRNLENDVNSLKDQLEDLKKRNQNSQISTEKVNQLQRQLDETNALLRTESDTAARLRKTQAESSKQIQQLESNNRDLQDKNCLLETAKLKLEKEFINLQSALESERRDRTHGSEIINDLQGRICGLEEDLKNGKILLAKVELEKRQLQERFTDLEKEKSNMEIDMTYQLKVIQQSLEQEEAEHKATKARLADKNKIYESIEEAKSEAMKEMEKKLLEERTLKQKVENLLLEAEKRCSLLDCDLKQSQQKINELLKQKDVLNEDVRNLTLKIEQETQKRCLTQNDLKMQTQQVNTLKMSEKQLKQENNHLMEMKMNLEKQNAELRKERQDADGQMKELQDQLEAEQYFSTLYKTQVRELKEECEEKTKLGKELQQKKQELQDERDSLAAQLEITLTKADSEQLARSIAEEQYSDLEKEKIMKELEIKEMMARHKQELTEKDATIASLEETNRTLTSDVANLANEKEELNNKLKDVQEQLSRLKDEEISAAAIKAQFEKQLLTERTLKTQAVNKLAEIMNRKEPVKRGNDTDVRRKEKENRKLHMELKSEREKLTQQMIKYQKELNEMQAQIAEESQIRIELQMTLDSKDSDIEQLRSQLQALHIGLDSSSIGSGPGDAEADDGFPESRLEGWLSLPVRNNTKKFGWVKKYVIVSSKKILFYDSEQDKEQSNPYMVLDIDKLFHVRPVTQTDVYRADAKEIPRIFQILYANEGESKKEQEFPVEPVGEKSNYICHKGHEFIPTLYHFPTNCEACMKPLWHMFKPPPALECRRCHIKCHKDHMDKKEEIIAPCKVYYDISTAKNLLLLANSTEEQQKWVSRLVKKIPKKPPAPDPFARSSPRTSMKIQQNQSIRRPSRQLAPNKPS
T6 sequence (Q9Y5S2 whole entry): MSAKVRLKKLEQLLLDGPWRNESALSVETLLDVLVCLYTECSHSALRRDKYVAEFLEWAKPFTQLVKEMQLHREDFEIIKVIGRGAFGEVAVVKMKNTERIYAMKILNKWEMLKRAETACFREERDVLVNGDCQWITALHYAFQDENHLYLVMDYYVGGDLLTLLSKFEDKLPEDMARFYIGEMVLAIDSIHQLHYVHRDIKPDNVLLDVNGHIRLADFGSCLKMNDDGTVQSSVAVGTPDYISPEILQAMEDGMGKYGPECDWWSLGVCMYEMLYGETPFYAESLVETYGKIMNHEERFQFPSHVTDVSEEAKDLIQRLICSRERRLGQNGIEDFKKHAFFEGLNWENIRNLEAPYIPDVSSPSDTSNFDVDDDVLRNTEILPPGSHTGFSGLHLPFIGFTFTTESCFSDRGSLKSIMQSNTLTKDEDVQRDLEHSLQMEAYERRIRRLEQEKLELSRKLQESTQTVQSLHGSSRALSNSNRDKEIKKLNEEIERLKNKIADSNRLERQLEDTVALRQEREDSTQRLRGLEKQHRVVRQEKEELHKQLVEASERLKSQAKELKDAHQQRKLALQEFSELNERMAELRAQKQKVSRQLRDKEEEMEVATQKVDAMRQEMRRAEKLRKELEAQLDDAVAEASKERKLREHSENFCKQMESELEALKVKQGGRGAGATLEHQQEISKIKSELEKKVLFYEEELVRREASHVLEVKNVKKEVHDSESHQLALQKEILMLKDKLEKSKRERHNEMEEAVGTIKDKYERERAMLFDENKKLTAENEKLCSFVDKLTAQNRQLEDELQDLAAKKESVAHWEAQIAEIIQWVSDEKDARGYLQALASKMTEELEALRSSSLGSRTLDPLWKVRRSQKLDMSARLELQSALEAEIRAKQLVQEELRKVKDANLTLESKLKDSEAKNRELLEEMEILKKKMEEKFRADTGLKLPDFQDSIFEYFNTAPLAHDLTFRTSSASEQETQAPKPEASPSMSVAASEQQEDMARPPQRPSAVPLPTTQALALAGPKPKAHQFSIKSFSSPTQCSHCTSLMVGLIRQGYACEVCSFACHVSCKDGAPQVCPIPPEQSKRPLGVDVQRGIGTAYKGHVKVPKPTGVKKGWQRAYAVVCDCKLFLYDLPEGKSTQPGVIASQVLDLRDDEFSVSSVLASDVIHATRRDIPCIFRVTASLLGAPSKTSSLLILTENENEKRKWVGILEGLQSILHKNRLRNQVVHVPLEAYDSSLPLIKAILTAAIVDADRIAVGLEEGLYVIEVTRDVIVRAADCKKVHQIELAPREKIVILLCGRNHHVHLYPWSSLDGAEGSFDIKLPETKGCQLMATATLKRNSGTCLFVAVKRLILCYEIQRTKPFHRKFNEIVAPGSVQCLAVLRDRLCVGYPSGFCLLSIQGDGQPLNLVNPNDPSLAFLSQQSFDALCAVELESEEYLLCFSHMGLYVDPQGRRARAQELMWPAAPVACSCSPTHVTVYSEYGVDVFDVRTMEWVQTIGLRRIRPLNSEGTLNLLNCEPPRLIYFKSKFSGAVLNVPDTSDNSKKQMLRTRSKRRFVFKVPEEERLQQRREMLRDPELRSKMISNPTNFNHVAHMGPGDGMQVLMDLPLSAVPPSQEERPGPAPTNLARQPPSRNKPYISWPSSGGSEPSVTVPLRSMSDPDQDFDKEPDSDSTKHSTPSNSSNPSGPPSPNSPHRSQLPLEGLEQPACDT
T2 sequence (Q15208 whole entry): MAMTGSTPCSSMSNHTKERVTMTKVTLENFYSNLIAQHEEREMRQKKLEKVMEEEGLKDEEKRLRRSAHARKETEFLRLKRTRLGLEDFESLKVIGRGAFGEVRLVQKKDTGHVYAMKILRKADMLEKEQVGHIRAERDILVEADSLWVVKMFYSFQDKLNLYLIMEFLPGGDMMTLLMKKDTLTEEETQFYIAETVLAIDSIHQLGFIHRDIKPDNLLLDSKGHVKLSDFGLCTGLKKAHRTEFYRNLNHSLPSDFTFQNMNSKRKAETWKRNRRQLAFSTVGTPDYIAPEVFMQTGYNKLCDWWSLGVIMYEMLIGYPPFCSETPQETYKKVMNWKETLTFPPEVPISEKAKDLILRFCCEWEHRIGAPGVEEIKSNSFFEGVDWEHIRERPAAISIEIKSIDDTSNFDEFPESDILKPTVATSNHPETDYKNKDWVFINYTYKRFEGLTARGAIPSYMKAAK
Chain of EIF2AK1 (Q9BQI3 whole entry): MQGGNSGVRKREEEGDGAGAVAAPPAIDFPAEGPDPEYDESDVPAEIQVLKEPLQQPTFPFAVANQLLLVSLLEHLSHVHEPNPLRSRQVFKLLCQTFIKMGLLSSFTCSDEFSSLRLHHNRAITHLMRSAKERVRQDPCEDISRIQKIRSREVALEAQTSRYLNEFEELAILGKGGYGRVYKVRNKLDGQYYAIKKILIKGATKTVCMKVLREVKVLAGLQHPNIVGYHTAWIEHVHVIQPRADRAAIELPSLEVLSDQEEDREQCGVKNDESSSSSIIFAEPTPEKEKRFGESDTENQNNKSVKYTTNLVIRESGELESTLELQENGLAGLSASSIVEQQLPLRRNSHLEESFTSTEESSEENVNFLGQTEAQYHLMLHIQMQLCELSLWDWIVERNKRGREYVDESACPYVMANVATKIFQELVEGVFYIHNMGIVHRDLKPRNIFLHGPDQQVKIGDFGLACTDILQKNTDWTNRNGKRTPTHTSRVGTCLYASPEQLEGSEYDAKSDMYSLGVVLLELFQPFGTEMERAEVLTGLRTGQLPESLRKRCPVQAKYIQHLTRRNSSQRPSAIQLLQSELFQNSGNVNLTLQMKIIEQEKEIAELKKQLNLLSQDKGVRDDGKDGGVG

## Cc1cnc2nc1Nc1cccc(c1)COCc1cc(ccc1OCCN1CCCC1)N2 [Compound 1]
YANK3
  remaining binding at 0.1 µM: 99%
CDK7
  remaining binding at 0.1 µM: 77%
CAMK2B
  remaining binding at 0.1 µM: 94%
PIK3CA(E542K)
  remaining binding at 0.1 µM: 89%
CLK4
  remaining binding at 0.1 µM: 94%
PRKX
  remaining binding at 0.1 µM: 76%
NDR1
  remaining binding at 0.1 µM: 87%
CHEK2
  remaining binding at 0.1 µM: 87%
PRKG2
  remaining binding at 0.1 µM: 47%
MEK6
  remaining binding at 0.1 µM: 100%
NIK
  remaining binding at 0.1 µM: 74%
CSF1R
  remaining binding at 0.1 µM: 62%
[1]
  remaining binding at 0.1 µM: 75%
CDK9
  remaining binding at 0.1 µM: 99%
MRCKB
  remaining binding at 0.1 µM: 96%
FER
  remaining binding at 0.1 µM: 87%
MYLK4
  remaining binding at 0.1 µM: 84%
CLK3
  remaining binding at 0.1 µM: 100%
CDK8
  remaining binding at 0.1 µM: 100%
[2]
  remaining binding at 0.1 µM: 100%
ROCK2
  remaining binding at 0.1 µM: 83%
EIF2AK1
  remaining binding at 0.1 µM: 76%
BMPR2
  remaining binding at 0.1 µM: 87%
[3]
  remaining binding at 0.1 µM: 100%
LYN
  remaining binding at 0.1 µM: 92%
